# Experimental data reported in patent publication US20230203026A1, “PESTICIDAL COMPOSITIONS AND METHODS” (CORTEVA AGRISCIENCE LLC, priority 2017, published 2023).
# Key:
# [1] = system: beet armyworm (Spodoptera exigua, LAPHEG) ("BAW"); assay: Insecticidal test for beet armyworm, 128-well diet tray assay; assay type: in vivo; details: 168 h, 50 μg/cm^2 of test compound on artificial diet, second instar BAW larvae, 25° C., five to seven days, average of eight wells, read-out: BAW % Control (or Mortality) rating
# Method: Insecticidal test for beet armyworm (Spodoptera exigua, LAPHEG) (“BAW”)
# (§1) Bioassays on beet armyworm (BAW; Spodoptera exigua: Lepidoptera) are conducted using a 128-well diet tray assay. One to five second instar BAW larvae are placed in each well (3 mL) of the diet tray that had been previously filled with 1 mL of artificial diet to which 50 μg/cm^2 of the test compound (dissolved in 50 μL of 90:10 acetone-water mixture) had been applied (to each of eight wells) and then allowed to dry. Trays are covered with a clear self-adhesive cover, vented to allow gas exchange, and held at 25° C., 14:10 light-dark for five to seven days. Percent mortality is recorded for the larvae in each well; activity in the eight wells is then averaged.
# [2] = system: Cabbage Looper (Trichloplusia ni, TRIPNI) ("CL"); assay: Insecticidal test for cabbage looper, 128-well diet tray assay; assay type: in vivo; details: Trichoplusia ni, 168 h; 50 μg/cm^2 of test compound on artificial diet; second instar CL larvae; 25° C.; five to seven days; average of eight wells; read-out: CL % Control (or Mortality) rating
# Method: Insecticidal Test for Cabbage Looper (Trichloplusia ni, TRIPNI) (“CL”)
# as §1, with “cabbage looper (CL; Trichloplusia ni:” for “beet armyworm (BAW; Spodoptera exigua:”, “CL” for “BAW”
smiles,measurement,setting,value
"Cc1ccc(C(F)(F)F)c(N2C(=O)CS/C2=N\C(=O)NOCc2ccc(-c3ncn(-c4ccc(OC(F)(F)F)cc4)n3)cc2)c1 [A24, (Z)-1-(3-(5-Methyl-2-(trifluoromethyl)phenyl)-4-oxothiazolidin-2-ylidene)-3-((4-(1-(4-(trifluoromethoxy)phenyl)-1H-1,2,4-triazol-3-yl)benzyl)oxy)urea]",mortality at 50 µg/cm2,[1],50 to 100%
same,mortality at 50 µg/cm2,[2],50 to 100%
"COc1ccc(CC(F)(F)F)c(N2C(=O)CS/C2=N\C(=O)NOCc2ccc(-c3ncn(-c4ccc(OC(F)(F)F)cc4)n3)cc2)c1 [A25, (Z)-1-(3-(5-Methoxy-2-(2,2,2-trifluoroethyl)phenyl)-4-oxothiazolidin-2-ylidene)-3-((4-(1-(4-(trifluoromethoxy)phenyl)-1H-1,2,4-triazol-3-yl)benzyl)oxy)urea]",mortality at 50 µg/cm2,[1],50 to 100%
same,mortality at 50 µg/cm2,[2],50 to 100%
"COc1ccc(C(C)C)c(N2C(=O)CS/C2=N\C(=O)NOCc2ccc(-c3ncn(-c4ccc(OC(F)(F)F)cc4)n3)cc2)c1 [A26, (Z)-1-(3-(2-Isopropyl-5-methoxyphenyl)-4-oxothiazolidin-2-ylidene)-3-((4-(1-(4-(trifluoromethoxy)phenyl)-1H-1,2,4-triazol-3-yl)benzyl)oxy)urea]",mortality at 50 µg/cm2,[1],50 to 100%
same,mortality at 50 µg/cm2,[2],50 to 100%
"COCc1ccc(C)cc1N1C(=O)CS/C1=N\C(=O)NOCc1ccc(-c2ncn(-c3ccc(OC(F)(F)F)cc3)n2)cc1 [A27, (Z)-1-(3-(2-(Methoxymethyl)-5-methylphenyl)-4-oxothiazolidin-2-ylidene)-3-((4-(1-(4-(trifluoromethoxy)phenyl)-1H-1,2,4-triazol-3-yl)benzyl)oxy)urea]",mortality at 50 µg/cm2,[1],50 to 100%
same,mortality at 50 µg/cm2,[2],50 to 100%
"Cc1ccc(C(C)C)c(N2C(=O)CS/C2=N\C(=O)NOCc2ccc(-c3ncn(-c4ccc(OC(F)(F)F)cc4)n3)cc2)c1 [A28, (Z)-1-(3-(2-Isopropyl-5-methylphenyl)-4-oxothiazolidin-2-ylidene)-3-((4-(1-(4-(trifluoromethoxy)phenyl)-1H-1,2,4-triazol-3-yl)benzyl)oxy)urea]",mortality at 50 µg/cm2,[1],50 to 100%
same,mortality at 50 µg/cm2,[2],50 to 100%
"CC(C)c1ccccc1N1C(=O)CS/C1=N\C(=O)NOCc1ccc(-c2ncn(-c3ccc(OC(F)(F)F)cc3)n2)cc1 [A29, (Z)-1-(3-(2-Isopropylphenyl)-4-oxothiazolidin-2-ylidene)-3-((4-(1-(4-(trifluoromethoxy)phenyl)-1H-1,2,4-triazol-3-yl)benzyl)oxy)urea]",mortality at 50 µg/cm2,[1],50 to 100%
same,mortality at 50 µg/cm2,[2],50 to 100%
"Cc1ccc(OCC(F)(F)F)c(N2C(=O)CS/C2=N\C(=O)NOCc2ccc(-c3ncn(-c4ccc(OC(F)(F)F)cc4)n3)cc2)c1 [A30, (Z)-1-(3-(5-Methyl-2-(2,2,2-trifluoroethoxy)phenyl)-4-oxothiazolidin-2-ylidene)-3-((4-(1-(4-(trifluoromethoxy)phenyl)-1H-1,2,4-triazol-3-yl)benzyl)oxy)urea]",mortality at 50 µg/cm2,[1],50 to 100%
same,mortality at 50 µg/cm2,[2],50 to 100%
"O=C(/N=C1\SCC(=O)N1c1cc(Cl)ccc1OCC(F)(F)F)NOCc1ccc(-c2ncn(-c3ccc(OC(F)(F)F)cc3)n2)cc1 [A31, (Z)-1-(3-(5-Chloro-2-(2,2,2-trifluoroethoxy)phenyl)-4-oxothiazolidin-2-ylidene)-3-((4-(1-(4-(trifluoromethoxy)phenyl)-1H-1,2,4-triazol-3-yl)benzyl)oxy)urea]",mortality at 50 µg/cm2,[1],50 to 100%
same,mortality at 50 µg/cm2,[2],50 to 100%
"CC(C)c1ccc(Cl)cc1N1C(=O)CS/C1=N\C(=O)NOCc1ccc(-c2ncn(-c3ccc(OC(F)(F)F)cc3)n2)cc1 [A32, (Z)-1-(3-(5-Chloro-2-isopropylphenyl)-4-oxothiazolidin-2-ylidene)-3-((4-(1-(4-(trifluoromethoxy)phenyl)-1H-1,2,4-triazol-3-yl)benzyl)oxy)urea]",mortality at 50 µg/cm2,[1],50 to 100%
same,mortality at 50 µg/cm2,[2],50 to 100%
"Cc1ccc(C(C)C)c(N2C(=O)CS/C2=N\C(=O)NOCc2ccc(-c3ncn(-c4ccc(OC(F)(F)C(F)(F)F)cc4)n3)cc2)c1 [A33, (Z)-1-(3-(2-Isopropyl-5-methylphenyl)-4-oxothiazolidin-2-ylidene)-3-((4-(1-(4-(perfluoroethoxy)phenyl)-1H-1,2,4-triazol-3-yl)benzyl)oxy)urea]",mortality at 50 µg/cm2,[1],50 to 100%
same,mortality at 50 µg/cm2,[2],50 to 100%
"Cc1ccc(C(C)C)c(N2C(=O)CS/C2=N\C(=O)NOC(C)c2ccc(-c3ncn(-c4ccc(OC(F)(F)C(F)(F)F)cc4)n3)cc2)c1 (stereo not shown) [A34, (Z)-1-(3-(2-Isopropyl-5-methylphenyl)-4-oxothiazolidin-2-ylidene)-3-(1-(4-(1-(4-(perfluoroethoxy)phenyl)-1H-1,2,4-triazol-3-yl)phenyl)ethoxy)urea]",mortality at 50 µg/cm2,[1],50 to 100%
same,mortality at 50 µg/cm2,[2],50 to 100%
"Cc1ccc(C(C)C)c(N2C(=O)CS/C2=N\C(=O)ON(Cc2ccc(-c3ncn(-c4ccc(OC(F)(F)F)cc4)n3)cc2)C(=O)OC(C)(C)C)c1 [A35, tert-Butyl (Z)-(((3-(2-isopropyl-5-methylphenyl)-4-oxothiazolidin-2-ylidene)carbamoyl)oxy)(4-(1-(4-(trifluoromethoxy)phenyl)-1H-1,2,4-triazol-3-yl)benzyl)carbamate]",mortality at 50 µg/cm2,[1],0%
same,mortality at 50 µg/cm2,[2],0%
"CC(C)c1ccc(Cl)cc1N1C(=O)CS/C1=N\C(=O)NN(C)C(C)c1ccc(-c2ncn(-c3ccc(OC(F)(F)F)cc3)n2)cc1 (stereo not shown) [A36, (Z)—N-(3-(5-Chloro-2-isopropylphenyl)-4-oxothiazolidin-2-ylidene)-2-methyl-2-(1-(4-(1-(4-(trifluoromethoxy)phenyl)-1H-1,2,4-triazol-3-yl)phenyl)ethyl)hydrazine-1-carboxamide]",mortality at 50 µg/cm2,[1],50 to 100%
same,mortality at 50 µg/cm2,[2],50 to 100%
"Cc1ccc(C(F)(F)F)c(N2C(=O)CS/C2=N\C(=O)NN(C)C(C)c2ccc(-c3ncn(-c4ccc(OC(F)(F)F)cc4)n3)cc2)c1 (stereo not shown) [A37, (Z)-2-Methyl-N-(3-(5-methyl-2-(trifluoromethyl)phenyl)-4-oxothiazolidin-2-ylidene)-2-(1-(4-(1-(4-(trifluoromethoxy)phenyl)-1H-1,2,4-triazol-3-yl)phenyl)ethyl)hydrazine-1-carboxamide]",mortality at 50 µg/cm2,[1],50 to 100%
same,mortality at 50 µg/cm2,[2],50 to 100%
"Cc1ccc(OCC(F)(F)F)c(N2C(=O)CS/C2=N\C(=O)NN(C)C(C)c2ccc(-c3ncn(-c4ccc(OC(F)(F)F)cc4)n3)cc2)c1 (stereo not shown) [A38, (Z)-2-Methyl-N-(3-(5-methyl-2-(2,2,2-trifluoroethoxy)phenyl)-4-oxothiazolidinylidene)-2-(1-(4-(1-(4-(trifluoromethoxy)phenyl)-1H-1,2,4-triazolyl)phenyl)ethyl)hydrazine-1-carboxamide]",mortality at 50 µg/cm2,[1],50 to 100%
same,mortality at 50 µg/cm2,[2],50 to 100%
"Cc1ccc(C(C)C)c(N2C(=O)CS/C2=N\C(=O)ON(C)Cc2ccc(-c3ncn(-c4ccc(OC(F)(F)F)cc4)n3)cc2)c1 [A39, (Z)-3-(2-isopropyl-5-methylphenyl)-2-((((methyl(4-(1-(4-(trifluoromethoxy)phenyl)-1H-1,2,4-triazol-3-yl)benzyl)amino)oxy)carbonyl)imino)thiazolidin-4-one]",mortality at 50 µg/cm2,[1],50 to 100%
same,mortality at 50 µg/cm2,[2],50 to 100%
"Cc1ccc(C(C)C)c(N2C(=O)CS/C2=N\C(=O)ONCc2ccc(-c3ncn(-c4ccc(OC(F)(F)F)cc4)n3)cc2)c1 [A40, (Z)-3-(2-isopropyl-5-methylphenyl)-2-(((((4-(1-(4-(trifluoromethoxy)phenyl)-1H-1,2,4-triazol-3-yl)benzyl)amino)oxy)carbonyl)imino)thiazolidin-4-one]",mortality at 50 µg/cm2,[1],50 to 100%
same,mortality at 50 µg/cm2,[2],50 to 100%
